One assay deals with Caenorhabditis elegans. Kind of assay: In vitro inhibitory activity required against Caenorhabditis elegans. It is filed as functional.
A further assay has as its system Artemia salina. Put plainly: In vitro inhibitory activity required against Artemia salina. It is filed as functional.

The values below come from ChEMBL document CHEMBL1144861, “Synthesis and biological activities of novel 4"-alkylidene avermectin derivatives” (2003).

Converted amounts (≈) assume the structure as drawn.

In general, MIC refers to the smallest concentration in the dilution series that meets the test's criterion for growth inhibition. Read a low MIC as inhibition by little substance.

With `CO[C@H]1C[C@H](O[Si](C)(C)C(C)(C)C)O[C@@H](C)/C1=C/CN1CCOCC1`, the MIC with Caenorhabditis elegans and against Artemia salina was 0.01 µg/mL (≈ 0.0269 µM) throughout.

Regarding `CO[C@H]1C[C@H](O[Si](C)(C)C(C)(C)C)O[C@@H](C)/C1=C/C(=O)O`, the MIC against Caenorhabditis elegans came out at 0.01 µg/mL (≈ 0.0316 µM); against Artemia salina, 0.002 µg/mL (≈ 0.00632 µM).

Take `CO[C@H]1C[C@H](O[Si](C)(C)C(C)(C)C)O[C@@H](C)/C1=C/CN1CCCCC1`: the MIC in the assay on Caenorhabditis elegans was determined as 0.05 µg/mL (≈ 0.135 µM); in the assay with Artemia salina, 0.01 µg/mL (≈ 0.0271 µM).

Regarding `CO[C@H]1C[C@H](O[Si](C)(C)C(C)(C)C)O[C@@H](C)/C1=C/C(=O)N1CCCCC1`, the MIC against Caenorhabditis elegans was 0.01 µg/mL (≈ 0.0261 µM); in the assay with Artemia salina, 0.002 µg/mL (≈ 0.00521 µM).

As for `CO[C@H]1C[C@H](O[Si](C)(C)C(C)(C)C)O[C@@H](C)/C1=C\COC(=O)c1ccncc1`, the MIC is 0.05 µg/mL (≈ 0.123 µM) against Caenorhabditis elegans and 0.01 µg/mL (≈ 0.0245 µM) against Artemia salina.

Turning to `CO[C@H]1C[C@H](O[Si](C)(C)C(C)(C)C)O[C@@H](C)/C1=C/C(=O)N1CCOCC1`, the MIC in the assay with Caenorhabditis elegans and in the assay with Artemia salina was 0.01 µg/mL (≈ 0.0259 µM) throughout.

Take IVERMECTIN: the minimal inhibitory concentration (MIC) against Caenorhabditis elegans and against Artemia salina was 0.002 µg/mL in each case.

Turning to `CO[C@H]1C[C@H](O[Si](C)(C)C(C)(C)C)O[C@@H](C)/C1=C\C=N\O`, the MIC is 0.01 µg/mL (≈ 0.0317 µM) in the assay on Caenorhabditis elegans and 0.002 µg/mL (≈ 0.00634 µM) with Artemia salina.

Turning to `CO[C@H]1C[C@H](O[Si](C)(C)C(C)(C)C)O[C@@H](C)/C1=C/CN1CCNCC1`, the MIC against Caenorhabditis elegans is 0.01 µg/mL (≈ 0.027 µM); in the assay on Artemia salina, 0.002 µg/mL (≈ 0.0054 µM).

`CO[C@H]1C[C@H](O[Si](C)(C)C(C)(C)C)O[C@@H](C)/C1=C/CCl`: the MIC in the assay on Caenorhabditis elegans and against Artemia salina was 0.01 µg/mL (≈ 0.0312 µM) in each case.

On to `CO[C@H]1C[C@H](O[Si](C)(C)C(C)(C)C)O[C@@H](C)/C1=C/C#N`, for which the MIC in the assay on Caenorhabditis elegans and against Artemia salina was 0.0005 µg/mL (≈ 0.00168 µM) each time.

For the compound `CO/N=C/C=C1\[C@H](C)O[C@@H](O[Si](C)(C)C(C)(C)C)C[C@@H]1OC`, the minimum inhibitory concentration (MIC) in the assay on Caenorhabditis elegans and with Artemia salina was 0.01 µg/mL (≈ 0.0303 µM) each time.

Turning to `CO[C@H]1C[C@H](O[Si](C)(C)C(C)(C)C)O[C@@H](C)/C1=C/C=O`, the MIC against Caenorhabditis elegans and against Artemia salina was 0.01 µg/mL (≈ 0.0333 µM) throughout.

On to `CO[C@H]1C[C@H](O[Si](C)(C)C(C)(C)C)O[C@@H](C)/C1=C\C#N`, for which the MIC against Caenorhabditis elegans and against Artemia salina was 0.002 µg/mL (≈ 0.00672 µM) each time.

For the compound `CO[C@H]1C[C@H](O[Si](C)(C)C(C)(C)C)O[C@@H](C)/C1=C/CO`, the MIC against Caenorhabditis elegans and in the assay with Artemia salina was 0.01 µg/mL (≈ 0.0331 µM) throughout.

Regarding `CO[C@H]1C[C@H](O[Si](C)(C)C(C)(C)C)O[C@@H](C)/C1=C\COC(=O)c1cccnc1`, the MIC against Caenorhabditis elegans came to 0.01 µg/mL (≈ 0.0245 µM); with Artemia salina it was 0.002 µg/mL (≈ 0.00491 µM).

With `CO[C@H]1C[C@H](O[Si](C)(C)C(C)(C)C)O[C@@H](C)/C1=C\C(=O)O`, the MIC in the assay with Caenorhabditis elegans was found to be 0.01 µg/mL (≈ 0.0316 µM); against Artemia salina, 0.002 µg/mL (≈ 0.00632 µM).

`CC[C@H](C)[C@H]1O[C@]2(C=C[C@@H]1C)C[C@@H]1C[C@@H](C/C=C(\C)[C@@H](O[C@H]3C[C@H](OC)[C@@H](O[C@H]4C[C@H](OC)[C@@H](O)[C@H](C)O4)[C@H](C)O3)[C@@H](C)/C=C/C=C3\CO[C@@H]4[C@H](O)C(C)=C[C@@H](C(=O)O1)[C@]34O)O2` [ABAMECTIN COMPONENT B1A]: the MIC turned out to be 0.002 µg/mL (≈ 0.00229 µM) against Caenorhabditis elegans and 0.0005 µg/mL (≈ 0.000573 µM) against Artemia salina.

For the compound `CO[C@H]1C[C@H](O[Si](C)(C)C(C)(C)C)O[C@@H](C)/C1=C/C(=O)N1CCNCC1`, the MIC worked out at 0.01 µg/mL (≈ 0.026 µM) in the assay on Caenorhabditis elegans and 0.002 µg/mL (≈ 0.0052 µM) with Artemia salina.

Take `C=CCOC(=O)/C=C1/[C@H](C)O[C@@H](O[Si](C)(C)C(C)(C)C)C[C@@H]1OC`: the MIC worked out at 0.01 µg/mL (≈ 0.028 µM) in the assay on Caenorhabditis elegans and 0.002 µg/mL (≈ 0.00561 µM) against Artemia salina.

As to `CCOC(=O)/C=C1/[C@H](C)O[C@@H](O[Si](C)(C)C(C)(C)C)C[C@@H]1OC`, the MIC in the assay with Caenorhabditis elegans and against Artemia salina was 0.01 µg/mL (≈ 0.029 µM) each time.
